For orientation: Ki means the equilibrium dissociation constant of an inhibitor or competing ligand from its target.

This note sets out measurements from patent US9504675B2, “Alpha-ketoheterocycles and methods of making and using” (The Scripps Research Institute, priority 2011, dated 2016).

Like-named read-outs stand apart in the source and are kept apart here.

For the assay, the target named is T1, recombinant rat FAAH (rFAAH) (Rattus norvegicus, UniProt P97612).
T1 construct: The truncated rat FAAH (rFAAH) was expressed in E. coli and purified; made in house; host or cells: Escherichia coli
T1 sequence (P97612 30-579 limits assumed): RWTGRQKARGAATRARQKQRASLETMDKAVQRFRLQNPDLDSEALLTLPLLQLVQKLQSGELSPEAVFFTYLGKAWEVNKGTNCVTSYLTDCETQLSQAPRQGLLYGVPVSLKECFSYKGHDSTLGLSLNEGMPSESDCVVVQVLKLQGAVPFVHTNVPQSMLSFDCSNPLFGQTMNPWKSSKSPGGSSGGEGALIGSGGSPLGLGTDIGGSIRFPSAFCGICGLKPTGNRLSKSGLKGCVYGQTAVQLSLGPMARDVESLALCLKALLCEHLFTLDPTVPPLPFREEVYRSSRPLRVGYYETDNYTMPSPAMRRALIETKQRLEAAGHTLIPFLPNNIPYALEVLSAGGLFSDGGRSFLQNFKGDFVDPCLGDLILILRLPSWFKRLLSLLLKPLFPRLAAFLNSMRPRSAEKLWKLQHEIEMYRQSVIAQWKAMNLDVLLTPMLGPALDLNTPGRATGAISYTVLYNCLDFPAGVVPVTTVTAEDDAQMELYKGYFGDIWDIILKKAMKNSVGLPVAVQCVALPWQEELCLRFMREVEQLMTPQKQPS
Kind of assay: Enzyme assay: inhibition of purified recombinant rat FAAH, 14C-oleamide hydrolysis, Ki by Dixon plot. It is filed as biochemical. On the procedure:
Enzyme assays were performed at 20-23° C. with purified recombinant rat FAAH expressed in Escherichia coli or with solubilized COS-7 membrane extracts from cells transiently transfected with human FAAH cDNA (where specifically indicated) in a buffer of 125 mM Tris/1 mM EDTA/0.2% glycerol/0.02% Triton X-100/0.4 mM Hepes, pH 9.0.
^14C-labeled oleamide was prepared from ^14C-labeled oleic acid. The truncated rat FAAH (rFAAH) was expressed in E. coli and purified. The purified recombinant rFAAH was used in the inhibition assays unless otherwise indicated. The full-length human FAAH (hFAAH) was expressed in COS-7 cells as described, and the lysate of hFAAH-transfected COS-7 cells was used in the inhibition assays where explicitly indicated.
The inhibition assays were performed as follows. […] The enzyme reaction was terminated by transferring 20 μL of the reaction mixture to 500 μL of 0.1 N HCl at three different time points. The ^14C-labeled oleamide (substrate) and oleic acid (product) were extracted with EtOAc and analyzed by TLC as detailed. The Ki of the inhibitor was calculated using a Dixon plot as described (standard deviations are provided in the Supporting Information tables).

[1] abbreviates: Ki, Table 2, (S)-enantiomer, 1,2,3,4-tetrahydronaphthalene C2 acyl side chain.
[2] abbreviates: Ki, Table 4, (R)-enantiomer, additional FAAH inhibitors.
[3] abbreviates: Ki, Table 2, (R)-enantiomer, 1,2,3,4-tetrahydronaphthalene C2 acyl side chain.
[4] abbreviates: Ki, Table 3, tentatively assigned (S)-enantiomer, indane C2 acyl side chain.
Setting [5] is: Ki, Table 4, (S)-enantiomer, additional FAAH inhibitors.
The mark [6] stands for this setting: Ki, Table 3, (R)-enantiomer, indane C2 acyl side chain.

Regarding `COC(=O)c1cnc(C(=O)C2CCc3cc(-c4ccccc4)ccc3C2)o1` (single isomer, unassigned) [(S)-4, Methyl 2-(6-Phenyl-1,2,3,4-tetrahydronaphthalene-2-carbonyl)oxazole-5-carboxylate], the Ki under setting [1] is 55 nM.

Take `O=C(c1nnc(-c2ccccn2)o1)C1CCc2cc(Oc3ccccc3)ccc2C1` (single isomer, unassigned) [(R)-36, (6-Phenoxy-1,2,3,4-tetrahydronaphthalen-2-yl)(5-(pyridin-2-yl)-1,3,4-oxadiazol-2-yl)methanone]: the Ki under setting [2] was found to be 6.3 nM.

In the case of `COC(=O)c1cnc(C(=O)C2CCc3cc(Oc4ccccc4)ccc3C2)o1` (single isomer, unassigned) [(R)-10, Methyl 2-(6-Phenoxy-1,2,3,4-tetrahydronaphthalene-2-carbonyl)oxazole-5-carboxylate], the Ki under setting [3] worked out at 59 nM.

With `O=C(O)c1cccc(-c2cnc(C(=O)C3Cc4ccc(Oc5ccccc5)cc4C3)o2)n1` (single isomer, unassigned) [(S)-29, 6-(2-(5-Phenoxyindane-2-carbonyl)oxazol-5-yl)picolinic acid], the inhibition constant Ki under setting [4] came to 71 nM.

Take `O=C(c1ncco1)C1CCc2ccccc2C1` (single isomer, unassigned) [(S)-37, Oxazol-2-yl(1,2,3,4-tetrahydronaphthalen-2-yl)methanone]: under setting [5], the inhibition constant Ki worked out at 5100 nM.

Turning to `COC(=O)c1cccc(-c2cnc(C(=O)C3Cc4ccc(Oc5ccccc5)cc4C3)o2)n1` (single isomer, unassigned) [(R)-28], under setting [6], the inhibition constant (Ki) worked out at 790 nM.

For the compound `N#Cc1cnc(C(=O)C2CCc3cc(Oc4ccccc4)ccc3C2)o1` (single isomer, unassigned) [(R)-11, 2-(6-Phenoxy-1,2,3,4-tetrahydronaphthalene-2-carbonyl)oxazole-5-carbonitrile], the Ki under setting [3] was found to be 54 nM.

With `O=C(c1ncco1)C1CCc2cc(Oc3ccccc3)ccc2C1` (single isomer, unassigned) [(R)-9, Oxazol-2-yl(6-phenoxy-1,2,3,4-tetrahydronaphthalen-2-yl)methanone], the Ki under setting [3] is 410 nM.

`O=C(O)c1cccc(-c2cnc(C(=O)C3CCc4cc(-c5ccccc5)ccc4C3)o2)n1` (single isomer, unassigned) [(R)-8, 6-(2-(6-Phenyl-1,2,3,4-tetrahydronaphthalene-2-carbonyl)oxazol-5-yl)picolinic acid]: the Ki under setting [3] was 500 nM.

In the case of `O=C(O)c1cccc(-c2cnc(C(=O)C3Cc4ccc(-c5ccccc5)cc4C3)o2)n1` (racemic) [Compound 25, 6-[2-(5-Phenylindane-2-carbonyl)oxazol-5-yl]pyridine-2-carboxylic Acid], the Ki (Ki, Table 3, racemate (enantiomers not separable), indane C2 acyl side chain) was determined as 57 nM.

Turning to `O=C(c1ncc(-c2ccccn2)o1)C1CCc2cc(-c3ccccc3)ccc2C1` (single isomer, unassigned) [(S)-6, (6-Phenyl-1,2,4-tetrahydronaphthalen-2-yl)(5-(pyridin-2-yl)oxazol-2-yl)methanone], the Ki under setting [1] amounted to 7.2 nM.

`O=C(c1ncc(-c2ccccn2)o1)C1Cc2ccc(OCc3ccccc3)cc2C1` (single isomer, unassigned) [(S)-31, (5-(Benzyloxy)indan-2-yl)(5-(pyridin-2-yl)oxazol-2-yl)methanone]: the Ki under setting [4] was 1.4 nM.

In the case of `O=C(c1nnco1)C1CCc2cc(Oc3ccccc3)ccc2C1` (single isomer, unassigned) [(S)-34, (1,3,4-Oxadlazol-2-yl)(6-phenoxy-1,2,3,4-tetrahydronaphthalen-2-yl)methanone], the Ki under setting [5] is 0.5 nM.

As for `COC(=O)c1cnc(C(=O)C2CCc3cc(Oc4ccccc4)ccc3C2)o1` (single isomer, unassigned) [(S)-10, Methyl 2-(6-Phenoxy-1,2,3,4-tetrahydronaphthalene-2-carbonyl)oxazole-5-carboxylate], under setting [1], the Ki was determined as 5.4 nM.

For the compound `O=C(c1ncc(-c2ccccn2)o1)C1CCc2ccccc2C1` (centres unmarked) [Compound 38, (5-(Pyridin-2-yl)oxazol-2-yl)(1,2,3,4-tetrahydronaphthalen-2-yl)methanone], the “Ki relative to the FAAH inhibitor lacking the conformational constraints (Ki=200 nM)” value is reported as 2 fold. Further, under “Ki”, the Ki came out at 430 nM.

On to `O=C(c1ncc(-c2ccccn2)o1)C1Cc2ccc(Oc3ccccc3)cc2C1` (single isomer, unassigned) [(R)-27, (5-Phenoxyindan-2-yl)(5-(pyridin-2-yl)oxazol-2-yl)methanone], for which the Ki under setting [6] was 42 nM.

Regarding `COC(=O)c1cnc(C(=O)C2CCc3cc(OCc4ccccc4)ccc3C2)o1` (single isomer, unassigned) [(R)-16, Methyl 2-(6-(Benzyloxy)-1,2,3,4-tetrahydronaphthalene-2-carbonyl)oxazole-5-carboxylate], the Ki under setting [3] is 53 nM.

`O=C(c1ncc(-c2ccccn2)o1)C1Cc2ccc(-c3ccccc3)cc2C1` (single isomer, unassigned) [(S)-23, (5-Phenylindan-2-yl)-(5-(pyridin-2-yl)oxazol-2-yl)methanone]: the Ki under setting [4] turned out to be 1.9 nM.

For `O=C(c1nnco1)C1CCc2cc(Oc3ccccc3)ccc2C1` (single isomer, unassigned) [(R)-34, (1,3,4-Oxadlazol-2-yl)(6-phenoxy-1,2,3,4-tetrahydronaphthalen-2-yl)methanone], the Ki under setting [2] is 1.4 nM.

Turning to `COC(=O)c1cccc(-c2cnc(C(=O)C3Cc4ccc(OCc5ccccc5)cc4C3)o2)n1` (single isomer, unassigned) [(S)-32, Methyl 6-(2-(5-(Benzyloxy)indane-2-carbonyl)oxazol-5-yl)picolinate], under setting [4], the Ki came out at 5.8 nM.

With `O=C(c1ncc(-c2ccccn2)o1)C1Cc2ccc(OCc3ccccc3)cc2C1` (single isomer, unassigned) [(R)-31, (5-(Benzyloxy)indan-2-yl)(5-(pyridin-2-yl)oxazol-2-yl)methanone], the inhibitory constant (Ki) under setting [6] stood at 110 nM.

On to `O=C(O)c1cccc(-c2cnc(C(=O)C3CCc4cc(OCc5ccccc5)ccc4C3)o2)n1` (single isomer, unassigned) [(S)-20, 6-(2-(6-(Benzyloxy)-1,2,3,4-tetrahydronaphthalene-2-carbonyl)oxazol-5-yl)picolinic acid], for which, under setting [1], the Ki was 34 nM.

For `COC(=O)c1cnc(C(=O)C2CCc3cc(-c4ccccc4)ccc3C2)o1` (single isomer, unassigned) [(R)-4, Methyl 2-(6-Phenyl-1,2,3,4-tetrahydronaphthalene-2-carbonyl)oxazole-5-carboxylate], under setting [3], the Ki worked out at 1400 nM.

Consider `O=C(c1ncc(-c2ccccn2)o1)C1Cc2ccc(Oc3ccccc3)cc2C1` (single isomer, unassigned) [(S)-27, (5-Phenoxyindan-2-yl)(5-(pyridin-2-yl)oxazol-2-yl)methanone], for which the inhibitory constant (Ki) under setting [4] came out at 2.1 nM.

For `O=C(O)c1cccc(-c2cnc(C(=O)C3Cc4ccc(Oc5ccccc5)cc4C3)o2)n1` (single isomer, unassigned) [(R)-29, 6-(2-(5-Phenoxyindane-2-carbonyl)oxazol-5-yl)picolinic acid], under setting [6], the Ki came out at 550 nM.

In the case of `O=C(c1ncco1)C1Cc2ccc(OCc3ccccc3)cc2C1` (racemic) [Compound 30, (5-(Benzyloxy)indan-2-yl)(oxazol-2-yl)methanone], under “Table 3, racemate (enantiomers not separable), indane C2 acyl side chain, read-out: Ki”, the Ki came out at 24 nM.

Turning to `COC(=O)c1cccc(-c2cnc(C(=O)C3Cc4ccc(OCc5ccccc5)cc4C3)o2)n1` (single isomer, unassigned) [(R)-32, Methyl 6-(2-(5-(Benzyloxy)indane-2-carbonyl)oxazol-5-yl)picolinate], under setting [6], the inhibitory constant (Ki) worked out at 130 nM.

Regarding `COC(=O)c1cccc(-c2cnc(C(=O)C3CCc4cc(OCc5ccccc5)ccc4C3)o2)n1` (single isomer, unassigned) [(R)-19, Methyl 6-(2-(6-(Benzyloxy)-1,2,3,4-tetrahydronaphthalene-2-carbonyl)oxazol-5-yl)picolinate], the inhibition constant (Ki) under setting [3] was 4500 nM.
